SMILES strings stand for the structures. Values joined by “and” are separate entries in the source; they are usually repeats but may differ in a detail not shown here. Identical values can stand only once. Like-named read-outs stand apart in the source and are kept apart here. A value given as a limit tells only on which side of the number the result lay.

One assay has as its target T1, HDAC 1 (Homo sapiens, UniProt Q13547).
T1 construct: made in house; host or cells: High5 insect cells
Briefly: in vitro HDAC assay with recombinant HDAC proteins (Fluor de Lys substrate). It counts as biochemical. The note with it: recombinant protein purified from High 5 insect cells; read-out: IC50 for HDAC 1 (class I). From the text: (§1) IC50 values may be calculated from dose-response curves. […] Biochem J. Aug. 15, 2000;350 Pt 1:199-205.

The test system of another assay is HDAC 2. Briefly: Western blot of peripheral blood cells of patients, phase I/II trial. Format: in vivo, human. The note with it: patients with serum levels above the therapeutic plasma concentration. The procedure:
(§2) Blood samples were taken before and 6 h, 24 h as well as 48 h after treatment start.
(§3) Whole cell extracts were prepared by lysis of cells in RIPA buffer plus protease inhibitors for denaturing SDS gel electrophoresis on a 12% denaturing polyacrylamide gel. Acetylated histones H3 and H4 and marker protein HDAC 2 were detected by Western blot analysis using an anti-acetyl Histone H3 antibody (Upstate, #06-942), an anti-acetyl Histone H4 antibody (clone T25; patent application EP 02.021984.6), and an anti-HDAC 2 antibody (SCBT, SC-7899). As an equal loading control PVDV membranes were stained with Coomassie.
For orientation: In western blotting, separated proteins are transferred to a membrane and probed.

Another assay concerns Histone H3 and H4. The description is as above. It counts as in vivo, human. On the procedure:
as §2, §3

Another assay has as its system Colo320DM cell line. Briefly: SRB proliferation assay, interval treatment. Format: cell-based. The note with it: Homo sapiens, COLO 320DM, 1 mM VPA, read-out: growth inhibition. The procedure: (§4) SRB proliferation assay: The reduction in cellular biomass was measured by SRB-assay. For this assay cells were seeded in 96 well culture dishes at densities between 3000 and 8000 cells per well. […] Cells were fixed with cold Trichloracetat (TCA) producing a final TCA concentration of 10%. After 1 hour of incubation at 4° C. the cells were washed five times with water and air dried. Fixed cells were stained for 30 minutes with 0.4% (wt/vol) Sulforhodamine B (SRB) dissolved in 1% acetic acid and washed four times with 1% acetic acid to remove unbound dye. After air drying bound dye was solubilized with 10 mM unbuffered Tris base (pH 10.5) for 5 minutes. Optical densities (OD) were read on a Molecular Devices Versa Max tunable microplate reader at 520-550 nm. Four test wells for each dose-response were set in parallel with 12 control wells per cell line. Measurement of the cell population density at time 0 (T0; the time at which the drug was added) was also made from 12 reference wells of cells fixed with TCA just prior to drug addition to the test plates. Background OD of complete medium with 5% FBS fixed and stained as described above was also determined in 12 separate wells. From the unprocessed OD data from each microtiter plate the background OD measurements (i.e. OD of complete medium plus stain and OD of cells at T0) were subtracted thus giving the reduction of cellular biomass of the cells.
On the technique in general: In SRB staining, fixed cells bind dye roughly in proportion to their protein.

For a further assay, the system named is PC-3 cell line. In words: SRB proliferation assay, interval treatment. It counts as cell-based. The settings on record: Homo sapiens, read-out: growth inhibition. The procedure: as §4
For another assay, the target named is T2, HDAC class I (Homo sapiens, UniProt Q13547).
T2 construct: made in house; host or cells: High5 insect cells
In words: in vitro HDAC assay, IC50 stated for the enzyme class. It counts as biochemical. The note with it: class I enzyme inhibition.
Excerpt: as §1

The test system of assay [1] is PC3 prostate carcinoma cells. In words: PC-3 mouse xenograft model. It counts as in vivo. The procedure: 24 athymic Nu/Nu^−/− mice were injected with 1×10^6 PC3 prostate carcinoma cells in 100 μl PBS into the right flank (8 animals per group). Tumors were allowed to grow for 4 days. Animals were treated with PBS (control), 2×200 mg/kg/d or 2×400 mg/kg/d, respectively, from day 5 until day 21. Tumor volumes were measured every 3-4 days.
Mouse Xenograft Model: 24 athymic Nu/Nu^−/− (Harlan) mice were injected with 1×10^6 PC3 prostate carcinoma cells in 100 μl PBS into the right flank (8 animals per group). Tumors were allowed to grow for 4 days. […] Tumor volumes were measured every […].

The next assay concerns the target HDAC 8 (Homo sapiens). Briefly: biochemical. From the text:
(§5) in vitro HDAC assay for determination of IC50 values: The determination of histone deacetylase activity in recombinant HDAC proteins derived from expression in High5 insect cells is based on the specific deacetylation of an artificial substrate (Fluor de Lys, Biomol). The substrate turn over may be detected and quantified by fluorometry. By addition of a HDAC inhibitor the hydrolysis of the substrate is constrained resulting in a decreased fluorometric signal. IC50 values may be calculated from dose-response curves. The assay is separated in two steps: in the first step the substrate (Fluor de Lys/Biomol KI-104) is hydrolysed by histone deacetylases. In step two HDAC activity is terminated and the fluorophore is activated by the addition of a developer (Developer/Biomol KI-105). […] 25 μl substrate (1:100 dilution in reaction buffer) per well are added to start the reaction. A negative control without histone deacetylase activity and a positive control without HDAC inhibitor are treated likewise. The reaction is stopped after 15-60 min. by adding 50 μl developer (1:20 dilution in reaction buffer). After another 15 min. incubation time at room temperature the fluorescence signal is stable for 60 min and may be detected by a fluorescence reader (excitation filter: 390 nm, emission filter: 460 nm). […]

The target of another assay is HDAC 6 (Homo sapiens, UniProt Q9UBN7). Briefly: biochemical.
Excerpt: as §5

In the next assay the test system is Histone H3 in 293T cells. Briefly: Western blot of 293T cells treated by release-pattern schemes. It counts as cell-based. On the procedure:
Whole cell extracts were prepared by lysis of cells in RIPA buffer plus protease inhibitors for denaturing SDS gel electrophoresis on a 12% denaturing polyacrylamide gel. Acetylated histones H3 were detected by Western blot analysis using an anti-acetylated H3 antibody (Upstate, #06-942).

T2 sequence (Q13547 whole entry): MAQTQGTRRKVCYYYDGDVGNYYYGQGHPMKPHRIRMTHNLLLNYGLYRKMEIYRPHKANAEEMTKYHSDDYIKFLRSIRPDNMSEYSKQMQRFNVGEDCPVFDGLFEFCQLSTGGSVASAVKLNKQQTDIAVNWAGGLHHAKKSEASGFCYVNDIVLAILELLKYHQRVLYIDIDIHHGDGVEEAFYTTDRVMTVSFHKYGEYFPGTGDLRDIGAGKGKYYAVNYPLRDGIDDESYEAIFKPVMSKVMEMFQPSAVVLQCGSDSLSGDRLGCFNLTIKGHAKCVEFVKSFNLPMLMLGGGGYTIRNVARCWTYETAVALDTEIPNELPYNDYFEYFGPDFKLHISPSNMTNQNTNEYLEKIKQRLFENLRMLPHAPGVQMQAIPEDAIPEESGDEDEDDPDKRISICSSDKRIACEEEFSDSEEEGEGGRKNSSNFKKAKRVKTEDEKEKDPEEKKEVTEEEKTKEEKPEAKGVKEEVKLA
T1 sequence (Q13547 whole entry): as above
Chain of HDAC 8 (Homo sapiens) (Q9UBN7 whole entry): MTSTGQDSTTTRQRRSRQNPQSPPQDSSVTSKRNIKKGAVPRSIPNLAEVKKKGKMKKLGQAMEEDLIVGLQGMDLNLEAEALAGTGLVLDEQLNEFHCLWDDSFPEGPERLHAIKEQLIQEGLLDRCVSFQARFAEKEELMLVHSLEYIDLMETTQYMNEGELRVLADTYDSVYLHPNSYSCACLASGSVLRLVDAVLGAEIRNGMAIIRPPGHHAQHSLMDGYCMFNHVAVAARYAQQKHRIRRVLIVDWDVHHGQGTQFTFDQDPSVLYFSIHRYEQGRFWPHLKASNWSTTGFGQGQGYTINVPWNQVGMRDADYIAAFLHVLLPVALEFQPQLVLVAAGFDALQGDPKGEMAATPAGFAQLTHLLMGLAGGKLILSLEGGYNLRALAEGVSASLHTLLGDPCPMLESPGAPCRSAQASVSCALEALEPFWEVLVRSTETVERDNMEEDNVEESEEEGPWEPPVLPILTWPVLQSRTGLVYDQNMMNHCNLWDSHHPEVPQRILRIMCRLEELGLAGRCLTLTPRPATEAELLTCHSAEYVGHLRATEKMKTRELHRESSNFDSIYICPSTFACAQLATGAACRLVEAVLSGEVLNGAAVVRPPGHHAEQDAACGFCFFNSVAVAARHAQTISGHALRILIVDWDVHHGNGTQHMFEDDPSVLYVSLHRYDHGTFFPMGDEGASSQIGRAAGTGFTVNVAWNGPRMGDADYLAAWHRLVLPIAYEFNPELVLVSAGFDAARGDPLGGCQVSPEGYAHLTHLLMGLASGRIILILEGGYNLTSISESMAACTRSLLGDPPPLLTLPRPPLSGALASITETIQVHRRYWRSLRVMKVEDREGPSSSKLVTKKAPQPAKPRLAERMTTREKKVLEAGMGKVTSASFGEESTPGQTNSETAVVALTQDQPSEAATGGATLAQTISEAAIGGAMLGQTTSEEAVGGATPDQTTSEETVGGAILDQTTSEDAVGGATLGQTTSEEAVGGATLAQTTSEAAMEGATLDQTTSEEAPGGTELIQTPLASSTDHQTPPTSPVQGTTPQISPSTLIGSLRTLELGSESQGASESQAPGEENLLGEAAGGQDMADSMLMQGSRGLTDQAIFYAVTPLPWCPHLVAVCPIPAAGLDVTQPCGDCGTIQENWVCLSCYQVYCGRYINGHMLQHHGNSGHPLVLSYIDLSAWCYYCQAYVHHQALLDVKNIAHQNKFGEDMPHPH
Chain of HDAC 6 (Q9UBN7 whole entry): as above

Usually IC50 stands for the point on the concentration scale where inhibition reaches its midpoint. As a reminder, the inhibition is the percentage by which the read-out fell short of the control. For `CCCC(CCC)C(=O)O` [VPA, 2-propyl-pentanoic acid], the 50% inhibitory concentration (IC50) is 200 µM and ~200 µM on HDAC 1; ~200 µM and 200 µM at HDAC class I; ~1100 µM on HDAC 8 (Homo sapiens); 1100 µM against HDAC 6. Further, in the assay on HDAC 2, the “regulation of the marker protein HDAC 2” value is “down regulation”. Also, the “correlation of VPA serum peak levels with induction of histone hyperacetylation” value in the assay on Histone H3 and H4 (peripheral blood cells before and 6 h, 24 h, 48 h after treatment start, intravenous VPA) is reported as “clear correlation”. Further, in the assay on Histone H3 and H4 (peripheral blood cells, patients with serum levels above the therapeutic plasma concentration), the “histone H3 and H4 hyperacetylation” value is “could be detected”. The inhibition at 1000 µM amounted to 27% in the assay on Colo320DM cell line (2×8 hours exposure, 40 h treatment free interval ("8 h d")); 57% with Colo320DM cell line (2×20 hours exposure, 26 h treatment free interval ("20 h d")); 80% in the assay on Colo320DM cell line (66 h, continuous exposure 66 h); 57% in the assay with PC-3 cell line (PC-3, 66 h, PC3, 1 mM VPA, continuous exposure 66 h); 26% in the assay with PC-3 cell line (PC-3, PC3, 1 mM VPA, 2×8 hours exposure, 40 h treatment free interval ("8 h d")); 43% in the assay on PC-3 cell line (PC-3, PC3, 1 mM VPA, 2×20 hours exposure, 26 h treatment free interval ("20 h d")). For the same compound, the anti-tumoral effect entry in [1] (200 mg/kg/d twice daily, day 5 until day 21) is listed as “no anti-tumoral effect”. In assay [1] (400 mg/kg/d twice daily, day 5 until day 21, compared to PBS control), the “PC-3 tumor volume reduction” value is reported as > 25%. In addition, the “degree of histone hyperacetylation” value in the assay with Histone H3 in 293T cells (VPA above IC50 for class I HDAC, exposure 6 h, 15 h, 24 h) is “strongly enhanced when the period of exposure is prolonged”. The “degree of histone hyperacetylation induction, "fast release" or "slow release" exposure each on their own compared with bi-phasic PEAC exposure” value in the assay with Histone H3 in 293T cells (Western blot) is “less effective”.

The values above are taken from patent US20070232528A1, “Formulation comprising histone deacetylase inhibitors” (priority 2004, published 2007).
